Results: EPA's CvTdb concentration-time database

Experiments:
Rat [1] = assay: concentration in plasma after dosing; conditions: 0.25 h; dosed: Potassium Perfluorobutane Sulfonate; 4 mg/kg; iv; Male; F344
Rat [2] = assay: concentration in kidney after dosing; conditions: 3 h; dosed: Potassium Perfluorobutane Sulfonate; 20 mg/kg; oral; Female; Harlan Sprague Dawley
Rat [3] = assay: concentration in liver after dosing; conditions: 3 h; dosed: Potassium Perfluorobutane Sulfonate; 20 mg/kg; oral; Female; Harlan Sprague Dawley
Rat [4] = assay: concentration in kidney after dosing; conditions: 12 h; dosed: Potassium Perfluorobutane Sulfonate; 20 mg/kg; oral; Male; Harlan Sprague Dawley
Rat [5] = assay: concentration in plasma after dosing; conditions: 2 min; dosed: Nitrite; 40 mg/kg; oral; Female; F344
Rat [6] = assay: concentration in plasma after dosing; conditions: 2 min; dosed: Nitrite; 80 mg/kg; oral; Female; F344
Rat [7] = assay: concentration in plasma after dosing; conditions: dosed: Nitrite, 80 mg/kg, oral, Female, F344
Mouse = assay: concentration in plasma after dosing; conditions: 10 min; dosed: 2-Hydroxy-4-methoxybenzophenone; 500 mg/kg; oral; Male; B6C3F1
Rat [8] = assay: concentration in plasma after dosing; conditions: dosed: 2-Hydroxy-4-methoxybenzophenone, 250 mg/kg, oral, Female, F344
Rat [9] = assay: concentration in plasma after dosing; conditions: dosed: 2-Hydroxy-4-methoxybenzophenone, 250 mg/kg, oral, Male, F344
rat [10] = assay: concentration in blood after dosing; conditions: dosed: methanol, male, CDF(F344)/CrlBR
Rat [11] = assay: concentration in kidney after dosing; conditions: 6 h; dosed: Perfluorooctanoic acid; 12 mg/kg; oral; Male; Harlan Sprague Dawley
Rat [12] = assay: concentration in liver after dosing; conditions: 3 h; dosed: Fluorotelomer alcohol 8+2; 80 mg/kg; oral; Female; Harlan Sprague Dawley
Rat [13] = assay: concentration in plasma after dosing; conditions: dosed: 678-39-7, 12 mg/kg, iv, Male, F344
Rat [14] = assay: concentration in liver after dosing; conditions: 1200 h; dosed: Perfluorooctanoic acid; 12 mg/kg; oral; Male; Harlan Sprague Dawley
Rat [15] = assay: concentration in liver after dosing; conditions: 24 h; dosed: Perfluorooctanoic acid; 80 mg/kg; oral; Female; Harlan Sprague Dawley
Rat [16] = assay: concentration in kidney after dosing; conditions: 1 h; dosed: Fluorotelomer alcohol 8+2; 24 mg/kg; oral; Male; Harlan Sprague Dawley
Rat [17] = assay: concentration in liver after dosing; conditions: 12 h; dosed: Fluorotelomer alcohol 8+2; 80 mg/kg; oral; Female; Harlan Sprague Dawley
Rat [18] = assay: concentration in kidney after dosing; conditions: 3 h; dosed: Fluorotelomer alcohol 8+2; 80 mg/kg; oral; Female; Harlan Sprague Dawley
rat [19] = assay: concentration in serum after dosing; conditions: dosed: benzo[a]pyrene, male, Wistar

O=S(=O)([O-])C(F)(F)C(F)(F)C(F)(F)C(F)(F)F.[K+] [Potassium Perfluorobutane Sulfonate]
Conditions	concentration in kidney [ng/g]	concentration in liver [ng/g]	concentration in plasma [ng/mL]
Rat [1]	–	–	16400
Rat [2]	10500	–	–
Rat [3]	–	5050	–
Rat [4]	3890	–	–

O=N[O-] [Nitrite]
Conditions	concentration in plasma [ng/mL]
Rat [5]	1900
Rat [6]	7000

Rat [7]
Conditions	concentration in plasma [ng/mL]
1 h	21600
2 h	13000

COc1ccc(C(=O)c2ccccc2)c(O)c1 [2-Hydroxy-4-methoxybenzophenone]
Conditions	concentration in plasma [ng/mL]
Mouse	102

concentration in plasma [ng/mL]
Conditions	Rat [8]	Rat [9]
3 h	81.6	71.3
10 min	13	35.9

CO [methanol]
rat [10], 200 ppm, inhalation, duration: 6 hr
Conditions	concentration in blood [ng/mL]
0 h	4780
0.5 h	2950
1 h	1990
1.5 h	3160
2 h	2100
3 h	949
4.5 h	1730
6 h	396
8 h	704
10 h	528

rat [10], 100 mg/kg, iv
Conditions	concentration in blood [ng/mL]
0.3747 h	90900
0.621 h	80500
1.114 h	70300
1.606 h	61300
2.08 h	60600
3.027 h	39200
4.505 h	26100
6.002 h	12200

O=C(O)C(F)(F)C(F)(F)C(F)(F)C(F)(F)C(F)(F)C(F)(F)C(F)(F)F [Perfluorooctanoic acid]
Conditions	concentration in kidney [ng/g]	concentration in liver [ng/g]
Rat [11]	37600	–
Rat [12]	–	2170
Rat [14]	–	7530
Rat [15]	–	7880
Rat [16]	175	–
Rat [17]	–	498
Rat [18]	2070	–

Rat [13]
Conditions	concentration in plasma [ng/mL]
0.75 h	332
12 h	524

c1ccc2c(c1)cc1ccc3cccc4ccc2c1c34 [benzo[a]pyrene]
rat [19]
Conditions	concentration in serum [ng/mL]
0.3352 h, 2 mg/kg, iv	2230
0.4717 h, 20 mg/kg, oral	116
0.752 h, 2 mg/kg, iv	1020
1.006 h, 2 mg/kg, iv	635
1.061 h, 20 mg/kg, oral	486
1.985 h, 20 mg/kg, oral	989
2.002 h, 2 mg/kg, iv	85.5
3.99 h, 20 mg/kg, oral	936
4.005 h, 2 mg/kg, iv	4.48
5.975 h, 20 mg/kg, oral	261
5.998 h, 2 mg/kg, iv	2.43
7.98 h, 20 mg/kg, oral	86
8 h, 2 mg/kg, iv	2.04
9.966 h, 20 mg/kg, oral	16.8
24.02 h, 20 mg/kg, oral	1.38
